# Measurements as given in patent US20020137929A1, “1 - (3-heterocyclylphenyl) isothiourea, -isourea, -guanidine and -amidine herbicidal agents” (Intellectual Property Department, BASF Aktiengesellschaft, priority 1998, published 2002).
# Experiments:
# ABUTH (Velvetleaf) = assay: Postemergence herbicidal evaluation; format: in vivo, Abutilon theophrasti; settings: postemergence
# Procedure, shortened: (§1)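 Rate range approx. 0.0156–0.500 kg/ha. Foliar application at 40 psi to ~2-week seedlings; surfactant 0.5% TWEEN 20 in 50/50 acetone/water. Evaluation 4–5 wk post-treatment by 0–9 visual injury score, means of replicate tests.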
# AMBEL (Ragweed, Common) = assay: Postemergence herbicidal evaluation; format: in vivo, Ambrosia artemisifolia; settings: postemergence
# Procedure, shortened: as §1
# [1] = system: IPOHE (Morningglory, Ivyleaf); assay: Postemergence herbicidal evaluation; format: in vivo, Ipomoea hederacea; settings: postemergence
# Procedure, shortened: as §1
# ECHCG (Barnyardgrass) [2] = assay: Postemergence herbicidal evaluation; format: in vivo, Echinochloa crus-galli; settings: postemergence
# Procedure, shortened: as §1
# SETVI (Foxtail, Green) = assay: Postemergence herbicidal evaluation; format: in vivo, Setaria viridis; settings: postemergence
# Procedure, shortened: as §1
# [3] = system: GLXMAW (Soybean, Williams); assay: Postemergence herbicidal evaluation; format: in vivo, Glycine max, (L.) Merr. cv Williams; settings: postemergence
# Procedure, shortened: as §1
# [4] = system: TRZAWR (Wheat, Winter, cv Riband); assay: Postemergence herbicidal evaluation; format: in vivo, Triticum aestivum; settings: postemergence
# Procedure, shortened: as §1
# CASOB (Sicklepod) = assay: Preemergence herbicidal evaluation; format: in vivo, Cassia obtusifolia; settings: rated 4-5 weeks after treatment
# Procedure, shortened: (§2)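 Preemergence soil application of compound, sprayed in aqueous acetone at rates equivalent to about 0.0156 to 0.500 kg per hectare onto freshly sown cups. Plant response was judged by eye on a 0-9 scale four to five weeks later.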
# [5] = system: CHEAL (Lambsquarters, Common); assay: Preemergence herbicidal evaluation; format: in vivo, Chenopodium album; settings: rated 4-5 weeks after treatment
# Procedure, shortened: as §2
# GALAP (Galium) = assay: Preemergence herbicidal evaluation; format: in vivo, Galium aparine; settings: rated 4-5 weeks after treatment
# Procedure, shortened: as §2
# [6] = system: IPOHE (Morningglory, Ivyleaf); assay: Preemergence herbicidal evaluation; format: in vivo, Ipomoea hederacea; settings: rated 4-5 weeks after treatment
# Procedure, shortened: as §2
# ECHCG (Barnyardgrass) [7] = assay: Preemergence herbicidal evaluation; format: in vivo, Echinochloa crus-galli; settings: rated 4-5 weeks after treatment
# Procedure, shortened: as §2
# ZEAMX (Corn, Field) = assay: Preemergence herbicidal evaluation; format: in vivo, Zea mays; settings: rated 4-5 weeks after treatment
# Procedure, shortened: as §2
# [8] = system: ECHORC (Watergrass (Calif.)); assay: Postemergence weed control under flooded paddy conditions; format: in vivo, Echinochloa oryzoides; settings: postemergence weeds, 3-4 weeks after treatment
# Procedure, shortened: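 With weeds 3 to 5 cm tall and rice at the 1.5 to 2.5 leaf stage, containers were flooded and water held 1.5 to 3 cm above soil. Compounds in 50/50 v/v aqueous/acetone went into the flood water at about 0.0313 to 0.500 kg/ha a.i. Effects were visually rated 0–9 against controls after three to four weeks in the greenhouse.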
smiles,measurement,setting,value
CCOC(=O)/C=C1/S/C(=N/c2cc(-n3c(=O)cc(C(F)(F)F)n(C)c3=O)c(F)cc2Cl)N(CC(=O)OCC)C1=O [Compound 14],ABUTH herbicidal rating,ABUTH (Velvetleaf); rate 0.0156 kg/ha,9.0
same,ABUTH herbicidal rating,ABUTH (Velvetleaf); rate 0.0313 kg/ha,9.0
same,ABUTH herbicidal rating,ABUTH (Velvetleaf); rate 0.0625 kg/ha,9.0
same,ABUTH herbicidal rating,ABUTH (Velvetleaf); rate 0.1250 kg/ha,9.0
same,AMBEL herbicidal rating,"AMBEL (Ragweed, Common); rate 0.0156 kg/ha",9.0
same,AMBEL herbicidal rating,"AMBEL (Ragweed, Common); rate 0.0313 kg/ha",9.0
same,AMBEL herbicidal rating,"AMBEL (Ragweed, Common); rate 0.0625 kg/ha",9.0
same,AMBEL herbicidal rating,"AMBEL (Ragweed, Common); rate 0.1250 kg/ha",9.0
same,IPOHE herbicidal rating,[1]; rate 0.0156 kg/ha,9.0
same,IPOHE herbicidal rating,[1]; rate 0.0313 kg/ha,9.0
same,IPOHE herbicidal rating,[1]; rate 0.0625 kg/ha,9.0
same,IPOHE herbicidal rating,[1]; rate 0.1250 kg/ha,9.0
same,ECHCG herbicidal rating,ECHCG (Barnyardgrass) [2]; rate 0.0156 kg/ha,9.0
same,ECHCG herbicidal rating,ECHCG (Barnyardgrass) [2]; rate 0.0313 kg/ha,9.0
same,ECHCG herbicidal rating,ECHCG (Barnyardgrass) [2]; rate 0.0625 kg/ha,9.0
same,ECHCG herbicidal rating,ECHCG (Barnyardgrass) [2]; rate 0.1250 kg/ha,9.0
same,SETVI herbicidal rating,"SETVI (Foxtail, Green); rate 0.0156 kg/ha",7.0
same,SETVI herbicidal rating,"SETVI (Foxtail, Green); rate 0.0313 kg/ha",8.0
same,SETVI herbicidal rating,"SETVI (Foxtail, Green); rate 0.0625 kg/ha",9.0
same,SETVI herbicidal rating,"SETVI (Foxtail, Green); rate 0.1250 kg/ha",9.0
same,GLXMAW herbicidal rating,[3]; rate 0.0156 kg/ha,6.0
same,GLXMAW herbicidal rating,[3]; rate 0.0313 kg/ha,8.0
same,GLXMAW herbicidal rating,[3]; rate 0.0625 kg/ha,9.0
same,GLXMAW herbicidal rating,[3]; rate 0.1250 kg/ha,8.5
same,TRZAWR herbicidal rating,[4]; rate 0.0156 kg/ha,5.5
same,TRZAWR herbicidal rating,[4]; rate 0.0313 kg/ha,6.0
same,TRZAWR herbicidal rating,[4]; rate 0.0625 kg/ha,7.5
same,TRZAWR herbicidal rating,[4]; rate 0.1250 kg/ha,9.0
same,CASOB preemergence herbicidal rating,CASOB (Sicklepod); rate 0.0313 kg/ha,0.0
same,CASOB preemergence herbicidal rating,CASOB (Sicklepod); rate 0.0625 kg/ha,1.0
same,CASOB preemergence herbicidal rating,CASOB (Sicklepod); rate 0.1250 kg/ha,1.5
same,CASOB preemergence herbicidal rating,CASOB (Sicklepod); rate 0.2500 kg/ha,2.0
same,CASOB preemergence herbicidal rating,CASOB (Sicklepod); rate 0.5000 kg/ha,5.0
same,CHEAL preemergence herbicidal rating,[5]; rate 0.0313 kg/ha,9.0
same,CHEAL preemergence herbicidal rating,[5]; rate 0.0625 kg/ha,9.0
same,CHEAL preemergence herbicidal rating,[5]; rate 0.1250 kg/ha,9.0
same,CHEAL preemergence herbicidal rating,[5]; rate 0.2500 kg/ha,9.0
same,CHEAL preemergence herbicidal rating,[5]; rate 0.5000 kg/ha,9.0
same,GALAP preemergence herbicidal rating,GALAP (Galium); rate 0.0313 kg/ha,0.0
same,GALAP preemergence herbicidal rating,GALAP (Galium); rate 0.0625 kg/ha,0.0
same,GALAP preemergence herbicidal rating,GALAP (Galium); rate 0.1250 kg/ha,9.0
same,GALAP preemergence herbicidal rating,GALAP (Galium); rate 0.2500 kg/ha,9.0
same,IPOHE preemergence herbicidal rating,[6]; rate 0.0313 kg/ha,0.0
same,IPOHE preemergence herbicidal rating,[6]; rate 0.0625 kg/ha,1.5
same,IPOHE preemergence herbicidal rating,[6]; rate 0.1250 kg/ha,7.5
same,IPOHE preemergence herbicidal rating,[6]; rate 0.2500 kg/ha,9.0
same,IPOHE preemergence herbicidal rating,[6]; rate 0.5000 kg/ha,9.0
same,ECHCG preemergence herbicidal rating,ECHCG (Barnyardgrass) [7]; rate 0.0313 kg/ha,0.0
same,ECHCG preemergence herbicidal rating,ECHCG (Barnyardgrass) [7]; rate 0.0625 kg/ha,0.0
same,ECHCG preemergence herbicidal rating,ECHCG (Barnyardgrass) [7]; rate 0.1250 kg/ha,1.0
same,ECHCG preemergence herbicidal rating,ECHCG (Barnyardgrass) [7]; rate 0.2500 kg/ha,3.0
same,ECHCG preemergence herbicidal rating,ECHCG (Barnyardgrass) [7]; rate 0.5000 kg/ha,6.0
same,ZEAMX preemergence herbicidal rating,"ZEAMX (Corn, Field); rate 0.0313 kg/ha",0.0
same,ZEAMX preemergence herbicidal rating,"ZEAMX (Corn, Field); rate 0.0625 kg/ha",0.0
same,ZEAMX preemergence herbicidal rating,"ZEAMX (Corn, Field); rate 0.1250 kg/ha",1.5
same,ZEAMX preemergence herbicidal rating,"ZEAMX (Corn, Field); rate 0.2500 kg/ha",2.0
same,ZEAMX preemergence herbicidal rating,"ZEAMX (Corn, Field); rate 0.5000 kg/ha",3.0
same,Herbicidal rating ECHORC,[8]; rate 0.0313 kg/ha,0.8
same,Herbicidal rating ECHORC,[8]; rate 0.0625 kg/ha,2.3
same,Herbicidal rating ECHORC,[8]; rate 0.1250 kg/ha,3.8
same,Herbicidal rating ECHORC,[8]; rate 0.2500 kg/ha,7.0
"CCOC(=O)CN1C(=O)C2(CC2)SC1=Nc1cc(-n2c(=O)cc(C(F)(F)F)n(C)c2=O)c(F)cc1Cl [Compound 15, Ethyl 5-{{2-chloro-5-[3,6-dihydro-3-methyl-2,6-dioxo-4-(trifluoromethyl)-1(2H)-pyrimidinyl]-4-fluorophenyl}imino}-7-oxo-4-thia-6-azaspiro[2.4]-heptane-6-acetate]",ABUTH herbicidal rating,ABUTH (Velvetleaf); rate 0.0156 kg/ha,9.0
same,ABUTH herbicidal rating,ABUTH (Velvetleaf); rate 0.0313 kg/ha,9.0
same,ABUTH herbicidal rating,ABUTH (Velvetleaf); rate 0.0625 kg/ha,9.0
same,ABUTH herbicidal rating,ABUTH (Velvetleaf); rate 0.1250 kg/ha,9.0
same,AMBEL herbicidal rating,"AMBEL (Ragweed, Common); rate 0.0156 kg/ha",0.0
same,AMBEL herbicidal rating,"AMBEL (Ragweed, Common); rate 0.0313 kg/ha",0.0
same,AMBEL herbicidal rating,"AMBEL (Ragweed, Common); rate 0.0625 kg/ha",4.0
same,AMBEL herbicidal rating,"AMBEL (Ragweed, Common); rate 0.1250 kg/ha",9.0
same,IPOHE herbicidal rating,[1]; rate 0.0156 kg/ha,6.0
same,IPOHE herbicidal rating,[1]; rate 0.0313 kg/ha,9.0
same,IPOHE herbicidal rating,[1]; rate 0.0625 kg/ha,9.0
same,IPOHE herbicidal rating,[1]; rate 0.1250 kg/ha,9.0
same,ECHCG herbicidal rating,ECHCG (Barnyardgrass) [2]; rate 0.0156 kg/ha,0.0
same,ECHCG herbicidal rating,ECHCG (Barnyardgrass) [2]; rate 0.0313 kg/ha,0.0
same,ECHCG herbicidal rating,ECHCG (Barnyardgrass) [2]; rate 0.0625 kg/ha,3.0
same,ECHCG herbicidal rating,ECHCG (Barnyardgrass) [2]; rate 0.1250 kg/ha,9.0
same,SETVI herbicidal rating,"SETVI (Foxtail, Green); rate 0.0156 kg/ha",0.0
same,SETVI herbicidal rating,"SETVI (Foxtail, Green); rate 0.0313 kg/ha",0.0
same,SETVI herbicidal rating,"SETVI (Foxtail, Green); rate 0.0625 kg/ha",2.0
same,SETVI herbicidal rating,"SETVI (Foxtail, Green); rate 0.1250 kg/ha",7.0
same,GLXMAW herbicidal rating,[3]; rate 0.0156 kg/ha,3.5
same,GLXMAW herbicidal rating,[3]; rate 0.0313 kg/ha,4.0
same,GLXMAW herbicidal rating,[3]; rate 0.0625 kg/ha,4.5
same,GLXMAW herbicidal rating,[3]; rate 0.1250 kg/ha,5.5
same,TRZAWR herbicidal rating,[4]; rate 0.0156 kg/ha,5.0
same,TRZAWR herbicidal rating,[4]; rate 0.0313 kg/ha,6.0
same,TRZAWR herbicidal rating,[4]; rate 0.0625 kg/ha,6.5
same,TRZAWR herbicidal rating,[4]; rate 0.1250 kg/ha,7.0
same,CASOB preemergence herbicidal rating,CASOB (Sicklepod); rate 0.0156 kg/ha,0.0
same,CASOB preemergence herbicidal rating,CASOB (Sicklepod); rate 0.0313 kg/ha,0.5
same,CASOB preemergence herbicidal rating,CASOB (Sicklepod); rate 0.0625 kg/ha,0.5
same,CASOB preemergence herbicidal rating,CASOB (Sicklepod); rate 0.1250 kg/ha,2.0
same,CASOB preemergence herbicidal rating,CASOB (Sicklepod); rate 0.2500 kg/ha,6.5
same,CHEAL preemergence herbicidal rating,[5]; rate 0.0156 kg/ha,6.5
same,CHEAL preemergence herbicidal rating,[5]; rate 0.0313 kg/ha,9.0
same,CHEAL preemergence herbicidal rating,[5]; rate 0.0625 kg/ha,9.0
same,CHEAL preemergence herbicidal rating,[5]; rate 0.1250 kg/ha,9.0
same,CHEAL preemergence herbicidal rating,[5]; rate 0.2500 kg/ha,9.0
same,GALAP preemergence herbicidal rating,GALAP (Galium); rate 0.0156 kg/ha,0.0
same,GALAP preemergence herbicidal rating,GALAP (Galium); rate 0.0313 kg/ha,0.0
same,GALAP preemergence herbicidal rating,GALAP (Galium); rate 0.0625 kg/ha,9.0
same,GALAP preemergence herbicidal rating,GALAP (Galium); rate 0.1250 kg/ha,9.0
same,GALAP preemergence herbicidal rating,GALAP (Galium); rate 0.2500 kg/ha,9.0
same,IPOHE preemergence herbicidal rating,[6]; rate 0.0156 kg/ha,1.0
same,IPOHE preemergence herbicidal rating,[6]; rate 0.0313 kg/ha,1.5
same,IPOHE preemergence herbicidal rating,[6]; rate 0.0625 kg/ha,1.5
same,IPOHE preemergence herbicidal rating,[6]; rate 0.1250 kg/ha,7.0
same,IPOHE preemergence herbicidal rating,[6]; rate 0.2500 kg/ha,9.0
same,ECHCG preemergence herbicidal rating,ECHCG (Barnyardgrass) [7]; rate 0.0156 kg/ha,0.0
same,ECHCG preemergence herbicidal rating,ECHCG (Barnyardgrass) [7]; rate 0.0313 kg/ha,0.5
same,ECHCG preemergence herbicidal rating,ECHCG (Barnyardgrass) [7]; rate 0.0625 kg/ha,1.0
same,ECHCG preemergence herbicidal rating,ECHCG (Barnyardgrass) [7]; rate 0.1250 kg/ha,2.0
same,ECHCG preemergence herbicidal rating,ECHCG (Barnyardgrass) [7]; rate 0.2500 kg/ha,4.5
same,ZEAMX preemergence herbicidal rating,"ZEAMX (Corn, Field); rate 0.0156 kg/ha",1.0
same,ZEAMX preemergence herbicidal rating,"ZEAMX (Corn, Field); rate 0.0313 kg/ha",1.0
same,ZEAMX preemergence herbicidal rating,"ZEAMX (Corn, Field); rate 0.0625 kg/ha",2.5
same,ZEAMX preemergence herbicidal rating,"ZEAMX (Corn, Field); rate 0.1250 kg/ha",3.0
same,ZEAMX preemergence herbicidal rating,"ZEAMX (Corn, Field); rate 0.2500 kg/ha",5.0
same,Herbicidal rating ECHORC,[8]; rate 0.0313 kg/ha,6.0
same,Herbicidal rating ECHORC,[8]; rate 0.0625 kg/ha,9.0
same,Herbicidal rating ECHORC,[8]; rate 0.1250 kg/ha,9.0
same,Herbicidal rating ECHORC,[8]; rate 0.2500 kg/ha,9.0
